Reference: US10052323B2, “Pharmaceutical compositions of 7-(6-(2-hydroxypropan-2-yl)pyridin-3-yl)-1-(trans)-4-methoxycyclohexyl)-3,4-dihydropyrazino [2,3-b]pyrazin-2(1H)-one, a solid form thereof and methods of their use” (Signal Pharmaceuticals, LLC, priority 2013, dated 2018)
Read-outs that look alike come from different tables or passages of the source.

Tests used:
[1] = Phase 1 crossover pharmacokinetics after a single oral 20 mg dose of tablet and capsule formulations; type: in vivo, human
Protocol: Certain formulations provided herein were evaluated in a Phase 1, open-label, randomized, crossover study.
On Day 1 of Period 1, following an overnight fast of at least 8 hours, subjects were randomized to one of the following 3 sequences to receive Treatment A, B or C (Table 35).
In Treatment A, one 20-mg reference Compound A API-in-capsule was administered orally after at least 8 hour fast with 240 mL of non-carbonated, room temperature water. In Treatment B, one 20-mg tablet of Compound A (Tablet Formulation XIII) was administered under fasted conditions. In Treatment C, four 5-mg tablets of Compound A (Tablet Formulation XIV) were administered under fasted conditions. The 20-mg tablet and four 5-mg tablets were administered orally after at least 8 hour fast with 240 mL of non-carbonated, room temperature water.
For each period, serial blood samples were collected before dosing (zero hour) and at 0.5, 1, 1.5, 2, 2.5, 3, 4, 6, 8, 12, 24, 48, 72, and 96 hours after dosing. Plasma concentrations of Compound A were determined for determining PK parameters, such as AUC0-t, AUC0-∞, Cmax, Tmax, t1/2, CL/F, and Vz/F for Compound A. Plasma PK parameters were calculated using non compartmental methods. Analyses of variance (ANOVA) were performed on the natural log-transformed AUC0-t, AUC0-∞, and Cmax for Compound A. The geometric mean ratios (test/reference) and their 90% confidence intervals were also calculated. For Tmax, non parametric analysis was used to produce median differences.

[2] = Susceptibility of Compound A to hydrolysis; type: physicochemical
[3] = Phase 1 food effect study (Part 2), single 20-mg oral dose of Compound A tablet, fed vs fasted; type: in vivo, human
Protocol: The primary objectives of this study are: to characterize the biotransformation and excretion of Compound A following a single 20 mg oral dose of Compound A capsule containing a microtracer of [^14C]-Compound A solution in healthy male subjects (Part 1) and to evaluate the effect of a high-fat meal on the pharmacokinetics (PK) of Compound A following a single oral 20-mg dose of Compound A tablet (Part 2).
Part 2 design: Part 2 will be a 2-period crossover study; in Period 1, subjects (n=12) will be randomized to receive either an oral 20 mg dose of Compound A tablet (Treatment B) under fed (n=6) or fasted (n=6) conditions. In Period 2, subjects will receive Treatment B under converse conditions based on treatment assignment in Period 1. After screening, subjects (n=12) eligible for participation in the study will return to the study center on Day −1 for baseline assessments. Subjects who continue to be qualified for participation in the study will be randomized and enrolled in the study on the morning of Day 1. Subjects (n=6) will be enrolled and randomized to receive Treatment B under fed or fasted conditions on the morning of Day 1 after fasting for at least 8 hours. Fed subjects will be served a standard high fat meal breakfast, or its equivalent, that must be consumed within 30 minutes from serving. Dosing must occur 30 minutes (±5 minutes) after serving a subject breakfast. All subjects (fed and fasted) will fast (not to consume any food) until 4 hours post dose. Water will be allowed during the fasting period. Subjects will be domiciled at the study center from Day −1 until the morning of Day 5 of each period. Subjects will be discharged from the study center on the morning of Day 5 upon satisfactory safety review and completion of study-related procedures. Safety and tolerability data will be monitored and collected following each dosing period. Periods 1 and 2 will be separated by a washout period of at least 7 days (no more than 10 days) from prior dose to the next dose. In certain instances, a longer washout may be acceptable if previously agreed to.
Serial blood samples (10 mL) will be collected at predose (0 hour) and at 0.5, 1, 2, 3, 6, 12, 24, 48, 72 and 96 hours post dose for the determination of plasma concentrations of Compound A and the O-desmethyl metabolite of Compound A. Safety will be monitored throughout the study; safety evaluations will include AE reporting, physical examinations, vital sign measurements, ECG, and clinical laboratory safety tests. Concomitant medications will be assessed and recorded throughout the study as well. In addition, during the subjects' stay-in-the clinic (i.e., confinement period), fasting plasma glucose levels will be monitored as part of the clinical laboratory safety tests. For Parts 1 and 2, all subjects will return to the clinic within 7 to 10 days after the last dose for follow up safety assessments. In the event that a subject discontinues prematurely from the study, every reasonable effort should be made (and documented) to ensure that all procedures and evaluations scheduled for the follow-up visit are performed at the time of discontinuation or a follow-up visit should be scheduled within 7 to 10 days from the discontinuation day.
Part 2 dosing: In Part 2, subjects will fast overnight for at least 8 hours prior to Compound A administration. On the morning of Day 1, each subject will receive a 20-mg tablet of Compound A orally. Subjects randomized to receive Compound A under fed conditions will be a served a standard high fat meal (breakfast).
The standard high fat meal or its equivalent must be consumed within 30 minutes of serving. Dosing must occur 30 minutes (±5 minutes) after serving the meal. The tablet will be administered with approximately 240 mL of non-carbonated, room temperature water. After dosing, subjects will continue to fast until 4 hours after dosing.

[4] = Pharmacokinetics of metabolite after 7.5-60 mg Compound A (protocol of U.S. provisional 61/653,436); type: in vivo, human; conditions: for concentration at 15 day: human, in vivo, read-out: Ctrough
Protocol: In certain embodiments, the pharmacokinetic parameters in connection with the metabolite of Compound A produced via administration of 7.5 mg, 15 mg, 30 mg, 45 mg and 60 mg of Compound A are obtained using the protocol set forth in Section 5.2.1 (paragraphs [00497]-[00520]) of U.S. provisional application No. 61/653,436, filed May 31, 2012, which is incorporated by reference herein in its entirety.
In certain embodiments, the pharmacokinetic parameters set forth herein are mean values obtained from multiple subjects.

[5] = Hygroscopicity by moisture adsorption/desorption (DVS); type: physicochemical
Protocol: Sorption isotherms were obtained using a SMS DVS Intrinsic moisture sorption analyser, controlled by DVS Intrinsic Control software v1.0.0.30. The sample temperature was maintained at 25° C. by the instrument controls. The humidity was controlled by mixing streams of dry and wet nitrogen, with a total flow rate of 200 mL/min. The relative humidity was measured by a calibrated Rotronic probe (dynamic range of 1.0-100% RH), located near the sample. The weight change, (mass relaxation) of the sample as a function of % RH was constantly monitored by the microbalance (accuracy±0.005 mg). Typically 5-20 mg of sample was placed in a tared mesh stainless steel basket under ambient conditions. The sample was loaded and unloaded at 40% RH and 25° C. (typical room conditions). The standard isotherm was performed at 25° C. at 10% RH intervals over a 0-90% RH range. Data analysis was undertaken in Microsoft Excel using DVS Analysis Suite v6.0.0.7.
Hygroscopicity of Form A was determined by moisture adsorption and desorption.

[6] = fed vs fasted, 20 mg Compound A tablet, healthy adult males
[7] = plasma, single 20-mg oral dose of Compound A tablet, Fasted (n = 11)
[8] = plasma, single 20-mg oral dose of Compound A tablet, Fed, high fat meal (n = 11)
[9] = day 1 of administration of about 45 mg of Compound A
[10] = day 1 of administration of about 60 mg of Compound A
[11] = upon administration of about 45 mg of Compound A

CO[C@H]1CC[C@H](N2C(=O)CNc3ncc(-c4ccc(C(C)(C)O)nc4)nc32)CC1 [Compound A, 7-(6-(2-hydroxypropan-2-yl)pyridin-3-yl)-1-((trans)-4-methoxycyclohexyl)-3,4-dihydropyrazino[2,3-b]pyrazin-2(1H)-one]
CL/F (L/h), geometric mean (geometric CV %) ([1]; plasma, single 20 mg oral dose of Compound A, fasted healthy adult males, Treatment A = API-in-capsule, B = one 20-mg tablet, C = four 5-mg tablets (analyte Compound A)): 20.3 (23) L/h
pharmacokinetics of tablet formulations versus API in capsule ([1]; single dose 20 mg, healthy adult male subjects): comparable
susceptibility to hydrolysis [2]: susceptible to hydrolysis
decrease in Cmax with a high fat meal [3, 6]: ~17%
delay in Tmax with a high fat meal [3, 6]: 2 h
increase in overall exposure (AUCinf) with a high fat meal [3, 6]: ~20%
CL/F (L/h), geometric mean (CV %) [3, 7]: 19.9 (38) L/h
CL/F (L/h), geometric mean (CV %) [3, 8]: 16.7 (38) L/h

CC(C)(O)c1ccc(-c2cnc3c(n2)N([C@H]2CC[C@H](O)CC2)C(=O)CN3)cn1 [O-Desmethyl metabolite, 1-((trans)-4-hydroxycyclohexyl)-7-(6-(2-hydroxypropan-2-yl)pyridin-3-yl)-3,4-dihydropyrazino[2,3-b]pyrazin-2(1H)-one]
tin ([4]; day 1 of administration of about 30 mg of Compound A): 21 h
Tax [4, 9]: 3 h
tin [4, 9]: 17 h
Tax [4, 10]: 5 h
tin [4, 10]: 16 h
Tax ([4]; day 15 of once a day administration of about 30 mg of Compound A): 2 h
Tax ([4]; day 15 of once a day administration of about 45 mg of Compound A): 2 h
Tax ([4]; day 15 of once a day administration of about 60 mg of Compound A): 3 h
concentration at 15 day ([4]; day 15 of once a day administration of about 7.5 mg of Compound A): 267 ng/mL
concentration at 15 day ([4]; day 15 of once a day administration of about 15 mg of Compound A): 145 ng/mL
Tax [4, 11]: 3 h
t1/2 [4, 11]: 14.7 h
Tax ([1]; metabolite, upon administration of about 20 mg of Compound A (protocol of Section 6.5.1)): 3 h
decrease in Cmax with a high fat meal [3, 6]: ~17%
increase in overall exposure (AUCinf) with a high fat meal [3, 6]: ~3%
CL/F (L/h), geometric mean (CV %) [3, 7]: 2.0 (38) L/h
CL/F (L/h), geometric mean (CV %) [3, 8]: 2.0 (36) L/h
t1/2 (h), geometric mean (CV %) [3, 8]: 14.9 (29) h

CO[C@H]1CC[C@H](N2C(=O)CNc3ncc(-c4ccc(C(C)(C)O)nc4)nc32)CC1 [Form A, 7-(6-(2-hydroxypropan-2-yl)pyridin-3-yl)-1-((trans)-4-methoxycyclohexyl)-3,4-dihydropyrazino[2,3-b]pyrazin-2(1H)-one]
XRPD diffractogram after full adsorption/desorption cycle ([5]; DVS cycle, 25° C.): unchanged from the initial Form A
hygroscopicity ([5]; DVS moisture sorption/desorption): not hygroscopic
water uptake ([5]; DVS, 25° C., between 0 and 80% relative humidity): < 0.1 % w/w
